Measured values: patent US12144792B2, “Therapeutic agents for neurodegenerative diseases” (priority 2016, dated 2024)

Key:
Npc1^−/− mouse = experiment: Lifespan; assay type: in vivo; details: 0.1 g/kg from 3 weeks of age
Excerpt: Separate groups of Npc1^−/− and Npc1^+/+ mice were left untreated, as controls.

[1] = tested on: Mucolipidosis Type IIIA (MLIIIA) patient fibroblasts; experiment: Lysosomal volume via LysoTracker; assay type: cell-based, human; details: 1 mM, 6 days, vs untreated
[2] = tested on: Hexb^−/− mouse (Sandhoff disease model); experiment: Bar crossing test; assay type: in vivo
Excerpt: This study made use of a mouse model of Sandhoff disease, the Hexb^−/− mouse, as described in Jeyakumar et al. (Jeyakumar, M. et al. (1999) Proc. Natl. Acad. Sci. USA 96: 6388-6393). The bar crossing test is a method for assessing motor function in mice in which the mouse is placed hanging from the centre of a horizontal bar by its front limbs. A wild-type mouse with normal motor function will be able to engage its hind limbs and thereby move to one of the platforms at either end of the bar, and in doing so complete the test. […] In FIG. 7B, acetyl-leucine treatment of 0.1 g/kg body weight was provided from 3 weeks of age. The acetyl-leucine treated Sandhoff mice retained the ability to complete the test up to 13 weeks of age (inclusive). Data shown is the mean of 6 mice per group. The treated Sandhoff mice retained the ability to complete the test up to 13 weeks of age (inclusive).

[3] = tested on: Mucolipidosis Type II (MLII) patient fibroblasts; experiment: Lysosomal volume via LysoTracker; assay type: cell-based, human; details: 1 mM, 6 days, vs untreated
[4] = tested on: Mucopolysaccharidosis Type VII (MPS VII) patient fibroblasts; experiment: Lysosomal volume via LysoTracker; assay type: cell-based, human; details: 1 mM, 6 days, vs untreated
[5] = tested on: patients with progressive supranuclear palsy; experiment: Case studies, clinical examination; assay type: in vivo, human; details: 3 then 5 g per day; for gait and hypokinetic rigid syndrome: 17 days
Procedure: After 27 days of acetyl-leucine treatment, medication was stopped and the patient was re-examined 60 days later. […] Gait analysis was performed before treatment commenced. After 17 days of treatment, medication was stopped and the patient was re-examined 4 days later. […] Gait analysis was performed before treatment commenced. After three weeks of treatment, medication was stopped and the patient was re-examined.

[6] = tested on: patient with oligosymptomatic MSA-C; experiment: Gait analysis; assay type: in vivo, human; details: Ex. 8 Patient 3, MSA-C; 3 then 5 gram per day; after one month
Procedure: After one month of treatment, a further examination was carried out.
Treatment was again suspended and the patient was evaluated three weeks later.

[7] = tested on: AB variant of Tay-Sachs disease patient fibroblasts; experiment: Glycosphingolipid (GSL) levels via HPLC; assay type: cell-based, human; details: 1 mM for 6 days
[8] = tested on: Npc1^−/− (BALB/cNctr-Npc1^m1N) mouse; experiment: Coat condition and disease indications by observation; assay type: in vivo
Excerpt: Separate groups of Npc1^-/- and Npc1^+/+ mice were left untreated, as controls.

[9] = tested on: microtubule-associated protein 1A/1B-light chain 3-phosphatidylethanolamine conjugate (LC3-II); experiment: LC3-II levels relative to tubulin loading control; assay type: in vivo, mouse; details: NPC1−/− mice, 0.1 g/kg body weight daily from 3 weeks of age; sacrificed at 8 weeks
Procedure: The Niemann-Pick Disease Type C (NPC) mouse model shares a number of pathological features with Alzheimer's disease (AD) as described herein. […] Mice were sacrificed at 8 weeks of age. Levels of amyloid precursor protein C-terminal fragments (APP-CTFs) were evaluated relative to total amyloid precursor protein (APP) levels in the cerebellum for wild type, untreated wild type NPC1^−/− mice, and AL-treated wild type NPC1^−/− mice. Levels of microtubule-associated protein 1A/1B-light chain 3-phosphatidylethanolamine conjugate (LC3-II) were also evaluated relative to levels of tubulin loading control for wild type, untreated wild type NPC1^−/− mice, and AL-treated wild type NPC1^−/− mice.

Npc1^−/− mice = experiment: Gait analysis (CatWalk); assay type: in vivo, mouse; details: 0.1 g/kg from weaning, eight weeks of age, vs untreated littermates
Procedure: Separate groups of Npc1^−/− and Npc1^+/+ mice were left untreated, as controls. Gait analysis was performed on mice at eight weeks of age using a CatWalk® 15.0 system according to manufacturer's instructions (Noldus, Nottingham, UK). Five runs were recorded per animal. CatWalk® parameters measured were: • 1. Stand Mean: average duration (s) of paws in contact with glass plate; • 2. Step Cycle: duration (s) between two consecutive contacts of the same paw; • 3. Duty Cycle: percentage of time paws in contact with plate compared with time to complete a step cycle; • 4. Step Sequence (AB): percentage of time spent walking in LF-RH-RF-LH alternating pattern (LF: left front; RH: right hind; RF: right front; LH left hind); • 5. Cadence: step per seconds in a trial; • 6. Diagonal Support: percentage of time with simultaneous contact of diagonal paws with the glass plate (RF&LH or RH&LF). Motor Function Analysis

[10] = tested on: patient with downbeat nystagmus; experiment: Gait analysis; assay type: in vivo, human; details: Ex. 12 Patient 2
Excerpt: Medication was then suspended. About one month after stopping acetyl-DL-leucine treatment, the patient's symptomatology worsened.

CC(=O)NC(CC(C)C)C(=O)O (racemic) [acetyl-DL-leucine]
lifespan (Npc1^−/− mouse): small but statistically significant increase in lifespan | LysoTracker fluorescence (lysosomal volume) [1]: trend in reducing LysoTracker fluorescence | age up to which the ability to complete the bar crossing test was retained ([2]; Sandhoff mice, 0.1 g/kg from 3 weeks of age, inclusive): up to 13 weeks of age | motor function in bar-crossing test ([2]; Sandhoff mouse, 0.1 g/kg body weight from 3 weeks of age): improved motor function and hind-limb mobility/engagement | LysoTracker fluorescence (lysosomal volume) [3]: statistically significant reduction in LysoTracker fluorescence | LysoTracker fluorescence (lysosomal volume) [4]: trend in reducing LysoTracker fluorescence | dizziness and gait ([5]; Ex. 11 Patient 1, PSP, 27 days): significant reduction of dizziness and slight improvement of gait | gait and hypokinetic rigid syndrome ([5]; Ex. 11 Patient 2, PSP): no significant improvement of gait or hypokinetic rigid syndrome | gait and hypokinetic rigid syndrome ([5]; Ex. 11 Patient 3, PSP): no significant improvement of gait or hypokinetic rigid syndrome | gait and falls ([5]; Ex. 11 Patient 4, PSP, after three weeks): gait with increased subjective security and with reduced frequency of falls | gait analysis, summary [6]: improvement of gait speed, and reductions of track width and gait fluctuations | GSL levels [7]: trend towards decreased GSL levels | onset of discernible indication of disease ([8]; Npc1−/− mice treated from weaning, untreated show it from 5-6 weeks of age): did not display such symptoms until two or more weeks later | coat condition ([8]; Npc1−/− mice, 0.1 g/kg in chow from weaning, nine weeks of age): smooth and glossy coat | LC3-II levels relative to tubulin [9]: lowering of LC3-II | gait properties (Npc1^−/− mice): significantly improved gait | self-chosen velocity ([10]; about one month after stopping treatment, decrease from 85): 72 cm/s | self-chosen velocity ([10]; on treatment, increase from 56): 85 cm/s
